Data on 3 compounds can be found in patent US8735584B2 (Merck Patent GmbH, priority 2008, dated 2014).

Common to all, as to format: biochemical
The target of experiment [1] is T1, AKT1 (Homo sapiens, UniProt P31749).
T1 construct: purchased Caliper Life Sciences
Kind of experiment: Desktop Profiler kinase panel, AKT1. The conditions noted are these: 10 micromolar concentration of the compound; read-out: Percent Inhibition AKT1. How it is done:
(§1) The Aurora assays described here are performed on two Caliper Life Sciences systems: the LC3000 and the Desktop Profiler. These provide data on enzyme activity via measurement of the relative amounts of phosphorylated or unphosphorylated fluorescently labelled substrate peptide at the end of an enzymatic reaction. These different states of peptide are resolved by applying a potential difference across the sample. The presence of the charged phosphate group on the product (as opposed to the substrate) causes a different peptide mobility between the two peptides. This is visualized by excitation of the fluorescent label on the substrate and product peptides and represented as peaks within the analysis software.
(§2) The Desktop Profiler utilizes the same principle as the LC3000 for calculating percentage conversion of a substrate to product. Caliper Life Sciences provides proprietary flash frozen pre-made 384 well plates containing selected kinases. Each column in the 384 well plate contains a particular selected kinase. A second plate, the ‘substrate plate’ contains a mix of fluorescently labeled peptide substrate and ATP. […]
(§3) Reading of the plate in the Profiler is identical to the LC3000, and the ratio between substrate and product peaks provides the activity of the enzyme in that well. […]

For experiment [2], the target named is T2, AKT2 (Homo sapiens, UniProt P31751).
T2 construct: purchased Caliper Life Sciences
The experiment is described as follows: Desktop Profiler kinase panel, AKT2. The conditions noted are these: 10 micromolar concentration of the compound; read-out: Percent Inhibition AKT2. How it is done: as §1
(§4) The Desktop Profiler utilizes the same principle as the LC3000 for calculating percentage conversion of a substrate to product. Caliper Life Sciences provides proprietary flash frozen pre-made 384 well plates containing selected kinases. Each column in the 384 well plate contains a particular selected kinase. A second plate, the ‘substrate plate’ contains a mix of fluorescently labeled peptide substrate and ATP. These are arranged in columns so that transfer for substrate plate to enzyme plate provides the correct enzyme with the correct substrate/ATP concentration. Compounds are added to a thawed enzyme plate in the desired format, in single concentrations. Reactions are initiated by transfer of the substrate/ATP mix from the substrate plate. The enzyme plate is incubated for 90 mins at 25 C. The reaction is stopped by addition of 70 ul of Stop Buffer (100 mM HEPES pH 7.5, 0.015% Brij-35, 10 mM EDTA (Sigma, E7889)).
(§5) Reading of the plate in the Profiler is identical to the LC3000, and the ratio between substrate and product peaks provides the activity of the enzyme in that well. This is best represented by a plate heat map which colors each well by percent inhibition as compared to positive and negative controls (no inhibitors and no ATP respectively).
(§6) In the following Tables 3a-4-b, which show the results of the desktop profiler measurements, “+” means 50-70% inhibition, “++” means 70-90% inhibition, and “+++” means >90% inhibition. The enzymes tested for profiling were ABL, AKT1, AKT2, AurA, CHK1, CHK2, CK1d, Erk1, Erk2, FYN, GSK3b, INSR, LCK, LYN, MAPKAPK2, MET, MSK1, p38a, PKA, PKCz, PKD2, PRAK, RSK1 and SRC.

For experiment [3], the target named is T3, CK1d (Homo sapiens, UniProt P48730).
T3 construct: purchased Caliper Life Sciences
Kind of experiment: Desktop Profiler kinase panel, CK1d. The conditions noted are these: 10 micromolar concentration of the compound; read-out: Percent Inhibition CK1d. On the procedure: as §1, §4, §5, §6

Experiment [4] deals with T4, Erk1 (Homo sapiens, UniProt P27361).
T4 construct: purchased Caliper Life Sciences
Kind of experiment: Desktop Profiler kinase panel, Erk1. The conditions noted are these: 10 micromolar concentration of the compound; read-out: Percent Inhibition Erk1. How it is done:
as §1, §2, §3

Experiment [5] has as its target T5, Erk2 (Homo sapiens, UniProt P28482).
T5 construct: purchased Caliper Life Sciences
Kind of experiment: Desktop Profiler kinase panel, Erk2. The following applies: 10 micromolar concentration of the compound; read-out: Percent Inhibition Erk2. On the procedure:
as §1, §2, §3

Experiment [6] has as its target T6, LCK (Homo sapiens, UniProt P06239).
T6 construct: purchased Caliper Life Sciences
The experiment is described as follows: Desktop Profiler kinase panel, LCK. The conditions noted are these: 10 micromolar concentration of the compound; read-out: Percent Inhibition LCK. On the procedure: as §1, §4, §5, §6

For experiment [7], the target named is T7, MSK1 (Homo sapiens, UniProt O75582).
T7 construct: purchased Caliper Life Sciences
The experiment is described as follows: Desktop Profiler kinase panel, MSK1. The following applies: 10 micromolar concentration of the compound; read-out: Percent Inhibition MSK1. On the procedure:
as §1, §4
(§7) Reading of the plate in the Profiler is identical to the LC3000, and the ratio between substrate and product peaks provides the activity of the enzyme in that well. This is best represented by a plate heat map which colors each well by percent inhibition as compared to positive and negative controls (no inhibitors and no ATP respectively). […]

For experiment [8], the target named is T8, PKA (Homo sapiens, UniProt P17612).
T8 construct: purchased Caliper Life Sciences
The experiment is described as follows: Desktop Profiler kinase panel, PKA. The conditions noted are these: 10 micromolar concentration of the compound; read-out: Percent Inhibition PKA. On the procedure: as §1, §4, §5, §6

Experiment [9] has as its target T9, PRAK (Homo sapiens, UniProt Q8IW41).
T9 construct: purchased Caliper Life Sciences
T9 sequence (Q8IW41 1-473): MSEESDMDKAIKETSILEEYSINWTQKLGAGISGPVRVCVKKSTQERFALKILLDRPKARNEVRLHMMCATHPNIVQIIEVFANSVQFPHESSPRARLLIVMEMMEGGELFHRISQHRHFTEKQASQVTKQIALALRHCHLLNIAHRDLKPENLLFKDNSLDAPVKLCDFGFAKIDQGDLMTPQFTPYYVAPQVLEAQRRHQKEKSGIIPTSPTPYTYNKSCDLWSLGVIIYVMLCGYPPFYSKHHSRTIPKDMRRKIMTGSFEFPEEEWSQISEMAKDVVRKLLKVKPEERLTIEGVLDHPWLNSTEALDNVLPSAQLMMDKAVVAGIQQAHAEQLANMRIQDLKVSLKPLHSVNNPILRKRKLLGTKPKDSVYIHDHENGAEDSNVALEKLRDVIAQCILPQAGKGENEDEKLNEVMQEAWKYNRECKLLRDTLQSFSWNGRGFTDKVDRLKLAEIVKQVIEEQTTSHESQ
Kind of experiment: Desktop Profiler kinase panel, PRAK. The conditions noted are these: 10 micromolar concentration of the compound; read-out: Percent Inhibition PRAK. How it is done:
as §1, §4, §7

The target in experiment [10] is T10, RSK1 (Homo sapiens, UniProt Q15418).
T10 construct: purchased Caliper Life Sciences
The experiment is described as follows: Desktop Profiler kinase panel, RSK1. The conditions noted are these: 10 micromolar concentration of the compound; read-out: Percent Inhibition RSK1. On the procedure:
as §1, §4, §5, §6

Experiment [11] concerns the target T11, MAPKAPK2 (Homo sapiens, UniProt P49137).
T11 construct: purchased Caliper Life Sciences
The experiment is described as follows: Desktop Profiler kinase panel, MAPKAPK2. The conditions noted are these: 10 micromolar concentration of the compound; read-out: Percent Inhibition MAPKAPK2. How it is done: as §1, §2, §3

Experiment [12] concerns the target T12, p38a (Homo sapiens, UniProt Q16539).
T12 construct: purchased Caliper Life Sciences
The experiment is described as follows: Desktop Profiler kinase panel, p38a. The following applies: 10 micromolar concentration of the compound; read-out: Percent Inhibition p38a. On the procedure:
as §1, §2, §3

For experiment [13], the target named is T13, PKCz (Homo sapiens, UniProt Q05513).
T13 construct: purchased Caliper Life Sciences
Kind of experiment: Desktop Profiler kinase panel, PKCz. The following applies: 10 micromolar concentration of the compound; read-out: Percent Inhibition PKCz. How it is done:
as §1, §2, §3

T10 sequence (Q15418 whole entry, species assumed): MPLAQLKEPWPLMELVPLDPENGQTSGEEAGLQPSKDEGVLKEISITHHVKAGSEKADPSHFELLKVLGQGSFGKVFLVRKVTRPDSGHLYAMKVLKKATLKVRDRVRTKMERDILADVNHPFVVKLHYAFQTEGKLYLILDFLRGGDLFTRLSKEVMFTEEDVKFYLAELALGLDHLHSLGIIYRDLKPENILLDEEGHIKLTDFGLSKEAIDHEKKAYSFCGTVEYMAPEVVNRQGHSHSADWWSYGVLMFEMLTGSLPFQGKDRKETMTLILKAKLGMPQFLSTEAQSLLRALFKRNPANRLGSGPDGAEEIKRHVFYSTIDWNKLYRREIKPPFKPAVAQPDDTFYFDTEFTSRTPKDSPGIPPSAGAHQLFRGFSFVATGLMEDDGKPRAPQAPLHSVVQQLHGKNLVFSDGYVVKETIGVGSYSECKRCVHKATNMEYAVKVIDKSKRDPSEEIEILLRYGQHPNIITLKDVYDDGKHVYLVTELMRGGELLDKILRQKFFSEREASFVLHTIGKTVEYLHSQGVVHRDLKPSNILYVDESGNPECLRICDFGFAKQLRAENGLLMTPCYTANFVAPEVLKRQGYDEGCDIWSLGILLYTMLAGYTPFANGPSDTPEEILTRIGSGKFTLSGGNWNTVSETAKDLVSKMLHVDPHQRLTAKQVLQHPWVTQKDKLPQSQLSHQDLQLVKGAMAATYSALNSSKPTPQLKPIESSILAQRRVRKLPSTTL
T3 sequence (P48730 whole entry): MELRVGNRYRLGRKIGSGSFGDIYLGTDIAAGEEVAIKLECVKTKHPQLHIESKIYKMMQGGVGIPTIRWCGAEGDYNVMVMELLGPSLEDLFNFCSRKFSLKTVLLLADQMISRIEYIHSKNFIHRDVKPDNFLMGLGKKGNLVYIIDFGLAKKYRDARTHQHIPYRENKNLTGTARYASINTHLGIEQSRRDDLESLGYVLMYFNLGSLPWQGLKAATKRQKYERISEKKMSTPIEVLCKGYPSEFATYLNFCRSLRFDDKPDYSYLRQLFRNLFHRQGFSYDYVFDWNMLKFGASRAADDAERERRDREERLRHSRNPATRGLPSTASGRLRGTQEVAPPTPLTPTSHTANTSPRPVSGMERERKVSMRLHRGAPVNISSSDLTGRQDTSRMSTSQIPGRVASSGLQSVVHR
T7 sequence (O75582 whole entry, species assumed): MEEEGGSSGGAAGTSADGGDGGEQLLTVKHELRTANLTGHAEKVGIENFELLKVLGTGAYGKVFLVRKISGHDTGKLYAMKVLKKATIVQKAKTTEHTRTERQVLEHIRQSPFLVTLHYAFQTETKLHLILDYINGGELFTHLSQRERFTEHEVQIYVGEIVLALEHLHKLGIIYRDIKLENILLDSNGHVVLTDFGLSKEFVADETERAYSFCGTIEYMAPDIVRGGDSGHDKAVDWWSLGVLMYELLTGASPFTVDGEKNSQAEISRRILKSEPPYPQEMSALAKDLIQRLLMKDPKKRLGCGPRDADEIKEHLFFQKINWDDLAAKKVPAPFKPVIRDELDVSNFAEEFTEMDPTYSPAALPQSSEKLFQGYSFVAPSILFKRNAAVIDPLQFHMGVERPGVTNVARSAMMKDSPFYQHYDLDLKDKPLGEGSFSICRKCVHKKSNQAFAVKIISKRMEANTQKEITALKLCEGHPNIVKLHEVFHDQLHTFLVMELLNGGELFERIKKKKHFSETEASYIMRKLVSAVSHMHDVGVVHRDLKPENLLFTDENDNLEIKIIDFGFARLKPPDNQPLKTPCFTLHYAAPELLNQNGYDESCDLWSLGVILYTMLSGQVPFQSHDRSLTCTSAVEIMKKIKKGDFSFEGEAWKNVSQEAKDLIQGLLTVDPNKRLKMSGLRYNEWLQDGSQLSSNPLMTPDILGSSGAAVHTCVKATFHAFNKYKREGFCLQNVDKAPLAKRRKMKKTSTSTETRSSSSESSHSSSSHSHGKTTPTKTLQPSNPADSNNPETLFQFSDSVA
T2 sequence (P31751 whole entry, species assumed): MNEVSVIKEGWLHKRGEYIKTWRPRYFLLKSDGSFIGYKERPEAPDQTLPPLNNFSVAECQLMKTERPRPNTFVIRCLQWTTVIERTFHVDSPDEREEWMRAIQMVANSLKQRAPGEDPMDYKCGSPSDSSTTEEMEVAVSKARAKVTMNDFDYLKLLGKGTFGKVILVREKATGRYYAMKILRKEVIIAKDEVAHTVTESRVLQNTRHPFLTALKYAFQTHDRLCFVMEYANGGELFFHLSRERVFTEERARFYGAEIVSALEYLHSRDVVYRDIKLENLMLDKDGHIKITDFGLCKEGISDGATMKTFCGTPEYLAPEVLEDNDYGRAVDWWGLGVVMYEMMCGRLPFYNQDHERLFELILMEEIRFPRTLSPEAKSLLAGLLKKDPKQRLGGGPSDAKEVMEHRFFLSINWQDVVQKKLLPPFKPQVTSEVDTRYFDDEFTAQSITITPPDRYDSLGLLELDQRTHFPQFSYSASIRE
T1 sequence (P31749 whole entry, species assumed): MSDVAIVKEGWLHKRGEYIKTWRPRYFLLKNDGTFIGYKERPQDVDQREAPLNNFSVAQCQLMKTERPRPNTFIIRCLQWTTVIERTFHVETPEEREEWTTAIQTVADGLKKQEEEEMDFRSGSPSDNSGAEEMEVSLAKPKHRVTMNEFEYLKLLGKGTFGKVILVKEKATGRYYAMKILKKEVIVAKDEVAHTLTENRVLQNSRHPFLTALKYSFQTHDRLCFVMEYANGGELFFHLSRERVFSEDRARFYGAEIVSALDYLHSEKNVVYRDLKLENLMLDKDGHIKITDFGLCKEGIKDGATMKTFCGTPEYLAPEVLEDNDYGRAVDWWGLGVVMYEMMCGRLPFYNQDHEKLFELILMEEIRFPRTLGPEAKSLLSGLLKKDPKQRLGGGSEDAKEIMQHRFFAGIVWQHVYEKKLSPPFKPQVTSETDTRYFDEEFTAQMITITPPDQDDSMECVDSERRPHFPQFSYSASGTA
T5 sequence (P28482 whole entry, species assumed): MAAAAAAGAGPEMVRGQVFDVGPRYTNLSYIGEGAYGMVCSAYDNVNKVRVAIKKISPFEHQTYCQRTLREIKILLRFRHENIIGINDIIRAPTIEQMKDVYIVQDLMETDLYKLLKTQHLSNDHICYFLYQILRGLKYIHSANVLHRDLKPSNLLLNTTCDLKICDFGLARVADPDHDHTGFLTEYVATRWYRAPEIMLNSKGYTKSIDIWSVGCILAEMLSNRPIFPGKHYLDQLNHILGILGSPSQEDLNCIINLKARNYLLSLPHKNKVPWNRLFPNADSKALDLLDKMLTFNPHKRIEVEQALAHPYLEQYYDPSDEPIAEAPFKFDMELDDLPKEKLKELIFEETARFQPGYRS
T4 sequence (P27361 whole entry, species assumed): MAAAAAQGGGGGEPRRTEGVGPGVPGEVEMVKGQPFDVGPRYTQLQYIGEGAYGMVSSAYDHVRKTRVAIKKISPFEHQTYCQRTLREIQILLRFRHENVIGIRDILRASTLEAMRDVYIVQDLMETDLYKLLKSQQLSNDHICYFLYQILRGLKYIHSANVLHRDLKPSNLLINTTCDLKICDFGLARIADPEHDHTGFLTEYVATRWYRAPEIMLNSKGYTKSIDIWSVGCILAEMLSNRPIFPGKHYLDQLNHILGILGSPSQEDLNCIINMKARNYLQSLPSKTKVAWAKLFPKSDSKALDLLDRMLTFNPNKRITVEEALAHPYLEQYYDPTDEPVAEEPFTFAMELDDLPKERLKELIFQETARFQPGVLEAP
T6 sequence (P06239 whole entry, species assumed): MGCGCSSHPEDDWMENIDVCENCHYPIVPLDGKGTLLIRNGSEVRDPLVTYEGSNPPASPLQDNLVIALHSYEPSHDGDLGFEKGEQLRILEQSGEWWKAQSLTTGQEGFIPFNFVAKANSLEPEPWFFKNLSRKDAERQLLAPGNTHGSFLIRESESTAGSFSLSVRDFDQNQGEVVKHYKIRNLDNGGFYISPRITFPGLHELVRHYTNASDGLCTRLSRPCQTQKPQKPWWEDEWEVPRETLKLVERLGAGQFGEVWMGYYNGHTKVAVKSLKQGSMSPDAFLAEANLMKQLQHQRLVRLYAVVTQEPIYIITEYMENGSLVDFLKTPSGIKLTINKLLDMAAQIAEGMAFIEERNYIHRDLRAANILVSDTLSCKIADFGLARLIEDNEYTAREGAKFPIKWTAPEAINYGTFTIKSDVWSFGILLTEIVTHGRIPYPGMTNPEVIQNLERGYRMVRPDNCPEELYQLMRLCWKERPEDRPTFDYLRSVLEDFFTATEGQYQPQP
T11 sequence (P49137 whole entry, species assumed): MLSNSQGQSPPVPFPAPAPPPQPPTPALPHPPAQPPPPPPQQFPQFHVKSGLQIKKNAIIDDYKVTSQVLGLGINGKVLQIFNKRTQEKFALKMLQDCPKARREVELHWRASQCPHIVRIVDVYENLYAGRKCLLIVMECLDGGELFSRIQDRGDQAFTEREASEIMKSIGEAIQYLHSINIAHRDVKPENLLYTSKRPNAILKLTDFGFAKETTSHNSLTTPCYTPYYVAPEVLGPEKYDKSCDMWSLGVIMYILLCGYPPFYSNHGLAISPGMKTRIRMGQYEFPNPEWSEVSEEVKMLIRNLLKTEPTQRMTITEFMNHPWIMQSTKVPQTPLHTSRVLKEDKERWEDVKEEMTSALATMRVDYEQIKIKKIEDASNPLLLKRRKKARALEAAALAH
T12 sequence (Q16539 whole entry): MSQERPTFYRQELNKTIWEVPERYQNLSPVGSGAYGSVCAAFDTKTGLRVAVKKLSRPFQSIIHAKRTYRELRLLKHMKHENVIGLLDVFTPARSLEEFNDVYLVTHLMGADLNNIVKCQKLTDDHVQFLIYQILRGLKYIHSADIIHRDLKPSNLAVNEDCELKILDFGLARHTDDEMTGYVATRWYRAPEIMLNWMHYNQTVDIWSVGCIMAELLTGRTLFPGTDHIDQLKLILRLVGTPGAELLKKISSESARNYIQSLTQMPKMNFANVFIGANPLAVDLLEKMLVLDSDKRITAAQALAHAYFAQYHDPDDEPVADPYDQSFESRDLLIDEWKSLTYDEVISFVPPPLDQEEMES

A word on the inhibition: it is the relative decrease from the control value, in per cent. For the compound `O=c1[nH]c2ncccc2c2cc(Nc3cccc(F)c3)ccc12` [Example 31, 9-(3-Fluoro-phenylamino)-5H-benzo[c][1,8]naphthyridin-6-one], the inhibition at 10 µM is 70 to 90% in experiment [1]; greater than 90% in [2]; 70 to 90% in [3]; 70 to 90% in experiment [4]; 70 to 90% in [5]; greater than 90% in [6]. Also, the inhibition at 10 µM was 70 to 90% in experiment [7], greater than 90% in [8], 70 to 90% in experiment [9] and 50 to 70% in [10].
For the compound `CC(=O)Nc1ccc(Oc2ccc3c(=O)[nH]c4ncccc4c3c2)cc1` [Example 81, N-[4-(6-Oxo-5,6-dihydro-benzo[c][1,8]naphthyridin-9-yloxy)-phenyl]-acetamide], the inhibition at 10 µM in [1] was greater than 90%; in experiment [2], greater than 90%; in experiment [3], 70 to 90%; in [4], 70 to 90%; in experiment [5] it was 70 to 90%; in experiment [6] it was greater than 90%. Besides, the inhibition at 10 µM in experiment [11] is 50 to 70%; in experiment [7] it was greater than 90%; in experiment [12] it was 50 to 70%; in experiment [8] it was greater than 90%; in [13], 50 to 70%; in experiment [9], 70 to 90%. The inhibition at 10 µM in experiment [10] was in the range of 70 to 90%.
In the case of `NC(=O)c1ccc(Oc2ccc3c(=O)[nH]c4ncccc4c3c2)cc1` [Example 82], the inhibition at 10 µM in experiment [2] was 50 to 70%; in experiment [3], 50 to 70%; in experiment [11], greater than 90%; in experiment [7], 50 to 70%; in [8], 70 to 90%; in experiment [9], greater than 90%. For the same compound, the inhibition at 10 µM in [10] fell in the range of 50 to 70%.
